Data taken from patent US20040202728A1, “Method for the destruction of oocysts” (priority 2001, published 2004).

Test system: Cryptosporidium oocysts
Assay: Microelectrophoresis of oocysts in the presence of water treatment coagulants
Experimental: The zeta potentials of Cryptosporidium oocysts in the presence 5 mg/L ferric chloride were studied over a pH range 3-10.
As with the ferric flocs, it was possible to differentiate between the alum flocs and the oocyst in solution because of their different size, shape and scattering ability. The zeta potentials of Cryptosporidium oocysts in the presence of 6.8 mg/L alum were studied over a pH range 4-8.

Structure (SMILES)	adsorption of coagulant species to oocysts (from zeta potentials) (6.8 mg/L, pH range 4-8)	adsorption of coagulant species to oocysts (from zeta potentials) (5 mg/L, pH range 3-10)
O=S(=O)([O-])[O-].O=S(=O)([O-])[O-].O=S(=O)([O-])[O-].[Al+3].[Al+3] [alum]	chemisorbed to the oocyst surface	–
[Cl][Fe]([Cl])[Cl] [ferric chloride]	–	no adsorption
